Laboratory results published in patent publication EP2201949A1 (World Trade Import-Export, WTIE A.G., priority 2007, dated 2009).

Tests used:
[1] = tested on: gout arthritis; type: in vivo, female Wistar rats; settings: for Global anti-inflammatory and analgesic activity expressed in CT AUC: through 5 hours of assessment; for effect of used dose on walking capability / relaxation of the animals: rat, in vivo
Source text: PIFIR experimental model is a preclinical model wherein gout arthritis is possible to be determined in a rodent and the anti-inflammatory and analgesic efficacy of several drugs in animals with this alteration is compared. This experimental model has some important advantages regarding other preclinical methodologies: a) an alteration which clinically affects to humans is established in the rodent: gout type arthritis; b) temporary course of anti-inflammatory and analgesic effect may be determined along […] in the same experimental subject, without producing rodent conditioning factor or learning, being this a significant disadvantage in other experimental models; c) less test drug is consumed compared with other experimental models; d) anti-inflammatory and analgesic effect assessment is performed by computer and not depending on sometimes subjective observations.
Experiments were performed by using female Wistar rats having a weight of about 180 to 200 g. Animals were kept in a room with alternate light/darkness cycles. Food was withdrawn from rats twelve hours before experimentation, with water ad-libitum. All experiments were carried out during light time, the animals being used only once.
Animals were anesthesized in a glass desiccator saturated with […]. Gout arthritis was induced by applying a 0.05 ml intra-articular uric acid injection suspended in mineral oil in the right anterior limb, exactly on the femoral-tibio-rotular joint. A 1 ml glass syringe was used for intra-articular injection with a No. 22 4 mm long needle. An electrode was fixed immediately later in every anterior leg between the plantar calluses. Rats were left to recover from anesthesia and they were enclosed in a 30 cm diameter stainless steel rotary cylinder. Cylinder was rotated at 4 rpm, forcing to the rats to walk during 2 min every half hour, during 5 hours after total dysfunction.
Contact time was the measured variable at every anterior leg from the rats in the cylinder. When electrode is in contact with the cylinder a circuit is closed and the contact time ratio between injured to uninjured legs was registered in a computer.
Temporary courses for every treatment were determined during 5 continuous hours, using a "n" of 6 rats per treatment.

[2] = cited from earlier work
[3] = each compound 177.8 mg/kg, alone or combined
[4] = after being orally administered

| Compound | Global anti-inflammatory and analgesic activity expressed in CT AUC [1, 3] [ua] | time of maximum effect after delivery ([1]; each compound 177.8 mg/kg, single dose, alone or combined, CT over 5 hours) [h] | Maximum effect (anti-inflammatory and analgesic effect) ([1]; each compound 177.8 mg/kg, single dose, alone or combined, temporary course (CT) over 5 hours, n = 6 rats) [%] | effect of used dose on walking capability / relaxation of the animals [1] | beginning of pharmacological action [2, 4] [minutes] | total therapeutic action duration [2, 4] | half-life ([2]; in vivo) |
| --- | --- | --- | --- | --- | --- | --- | --- |
| C[C@H]1C[C@H]2[C@@H]3CCC4=CC(=O)C=C[C@]4(C)[C@@]3(F)[C@@H](O)C[C@]2(C)[C@@]1(O)C(=O)CO [Betamethasone] | 31.6 ± 10.8 | 4.5 | 24.0 ± 11.9 | did not affect the walking rat capability | – | – | – |
| COc1ccccc1OCC(O)COC(N)=O (stereo not drawn) [Methocarbamol] | 48.8 ± 21.0 | – | – | slight relaxation effect | ≤ 30 | about 24 hours | about 14 hours |
